Assay results from a melting point compilation (Tetko et al.; mined from patent text by program, amines drawn as free bases though some values may be those of a salt).

SMILES | melting point
CCOC(=O)c1c(C(C)(C)O)nc(SC)n1Cc1ccc(-c2ccccc2-c2nnn[nH]2)cc1 | 125 to 127 °C
C=C(Cc1c(Cl)cccc1Cl)C(=O)O | 132 °C
CC(O)c1cn(C2CCc3c(F)cc(F)cc3C2)c(=S)[nH]1 (stereo unspecified) | 210 to 211 °C
CC(C)c1nc2cc(COc3ccc(CC4SC(=O)NC4=O)cc3)ccc2o1 (stereo unspecified) | 128 to 131 °C
CCCn1c(=O)c2[nH]c(C3CCCC3)nc2n(CCc2ccc(NC(=O)CC)cc2)c1=O | > 270 °C
CC(C)(C)c1cc(SCc2ccc(C#N)cc2)cc(C(C)(C)C)c1O | 143 to 145 °C
CCOC(=O)c1c[nH]c2c(=O)ccc(NC(=O)CC)cc2c1=O | > 250 °C
CC(=O)OC1=C(C(=O)c2ccc(C)cc2)C(c2ccc(OC(F)(F)F)cc2)N(c2ccc(C)nn2)C1=O (stereo unspecified) | 165 to 166 °C
CC(C)Cn1c(C(O)c2ccccc2)nc2cnc3ccccc3c21 (stereo unspecified) | 160 to 166 °C
CN(C)c1ccc(/C=C/c2c(F)cccc2F)cc1 | 112 to 113 °C
CCCCCC(Cc1ccc(OC)c(OCCc2ccccc2)c1)NC(=O)OC(C)(C)C (stereo unspecified) | 91.5 to 92.5 °C
CCCCCCCCCCCCCCCCCCOCC(CBr)OCCCCCCCCCCCCCCCCCC (stereo unspecified) | 38 to 38.8 °C
COc1ccc(NC(=N)c2cccs2)cc1CO | 191 to 192 °C
CCOC(=O)c1sc2cccc(O)c2c1C | 183 to 184 °C
CC1(C)NC(=O)C(C)(C)N1O | 240 to 245 °C
Cn1c(=O)c2c(Cl)cccc2n2cnc(C(=O)OCC3CC3)c12 | 214 °C
COc1cc2c(cc1C(F)(F)F)N(C(=O)Nc1ccc3c(ccn3-c3ccncc3)c1)CC2 | 206 to 211 °C
Cc1cnc(N2CCN(CC[C@H]3CC[C@H](NC(=O)C4CCOCC4)CC3)CC2)c2c1OCC2 | 224 °C
CN1C(C)(C)CC2(CC1(C)C)NC(=O)N(CC(O)COCC(O)COCC(O)CN1C(=O)NC3(CC(C)(C)N(C)C(C)(C)C3)C1=O)C2=O (stereo unspecified) | 175 to 177 °C
O=C(CCn1c2ccc(O)cc2c2c3c(c(-c4ccccc4Cl)cc21)C(=O)NC3=O)NS(=O)(=O)c1ccccc1 | 291 to 293 °C
O=Cc1ccc(OC[C@H]2CCCN2c2ncnc3[nH]cnc23)c2ccccc12 | 167 to 168 °C
O=C(Cn1c(-c2cc([N+](=O)[O-])cc([N+](=O)[O-])c2)ncc(NC(=O)OCc2ccccc2)c1=O)NC(Cc1ccccc1)C(=O)C(F)(F)F (stereo unspecified) | 154 to 157 °C
COC(=O)c1ccc(-c2n[nH]c3c2CCc2nc(C(C)C)c(C(C)C)nc2-3)cc1 | 204 to 206 °C
CCCCCCCCCCCCSC(C)Cn1ccnc1 (stereo unspecified) | 79.5 to 81 °C
COC(=S)C(=Cc1ccccc1)N1CC(N2C(=O)c3ccccc3C2=O)C1=O (stereo unspecified) | 170 to 171 °C
COc1cccc(C2(O)CCN(C)CC2)c1 | 111 to 113 °C

SMILES | melting point
CC(Cn1ncc2ccc(O)cc21)O[Si](C)(C)C(C)(C)C (stereo unspecified) | 169 to 174 °C
CCOc1cccc(C2NC(C(=O)O)CS2)c1OCCO[N+](=O)[O-] (stereo unspecified) | 124 to 125 °C
Cn1c(C(F)(F)F)ccc(-c2cc(S(=O)(=O)Cl)c(Cl)cc2F)c1=O | 77 to 78 °C
CN1C(=O)C(C(=O)Nc2ccc(F)cc2)S(=O)(=O)c2ccc(Cl)cc21 (stereo unspecified) | 234 to 236 °C
COc1ccc(-c2ccc3c(Cl)c(OC)ccc3c2)cc1 | 158 to 164 °C
COC1([N+](=O)[O-])C=CC(C=Cc2ccccc2)=CC1 (stereo unspecified) | 131 to 132 °C
CN1CCN(Cc2ccc(N)cc2C(F)(F)F)CC1 | 119 to 121 °C
CN1CCC(ON2C(=O)c3ccccc3C2=O)CC1 | 90 °C
CCCCCCOc1ccc(-c2nc(-c3ccc(OCCCCCC)cc3O)nc(-c3ccc(OCCCCCC)cc3O)n2)c(O)c1 | 125 to 127 °C
Cc1cc(C)cc(CNC(=O)C(Cc2c[nH]c3ccccc23)NC(=O)c2ccccc2)c1 (stereo unspecified) | 177 to 178 °C
CC(C)NCCCS(=O)(=O)O | 240 to 243 °C
CCOC(=O)c1cn(C2CC2)c2c(C)c(N3CCN(C)CC3)c(F)c(Cl)c2c1=O | 175 to 177 °C
O=c1c2cc3ccccc3cc2oc2cc(OCC3CO3)cc(O)c12 (stereo unspecified) | 201 to 202 °C
CCCCC1(N(C)C)CC=C(c2[nH]c3ccccc3c2Cc2ccccc2)CC1 (stereo unspecified) | 107 to 115 °C
CCOC(=O)COc1ccc(C=O)cc1OC | 56 to 59 °C
CCOC(=O)C1COc2ccc(C(C)=O)cc2O1 (stereo unspecified) | 57 °C
COC(=O)c1cc(C(=O)CBr)cs1 | 112 to 114 °C
CCN1C(=O)C(C)(C)C(=O)N(C)c2cc(CCN(CCn3cc(C)c4occc4c3=O)Cc3cc(C)nn3C)ccc21 | 171 to 173 °C
CCC(CC)C(c1ccnn1-c1ccccc1)N(C)S(=O)(=O)c1ccc(Cl)s1 (stereo unspecified) | 126 to 128 °C
Cn1cc(F)cnc1=O | 177 to 178 °C
O=C(O)c1ccc(C(=O)/C=C/c2cc(-c3cccs3)ccc2N2CCCC2)cc1 | 208 to 209 °C
O=C(O)c1ccc(SC(=O)c2ccc(O)c(C34CC5CC(CC(C5)C3)C4)c2)cc1 | 272 to 274 °C
CC(C)Oc1ccc(-c2[nH]c(-c3ccc([N+](=O)[O-])cc3)nc2C(=O)Nc2nccs2)cc1 | 267 to 270 °C
Fc1ccc2[nH]ccc2c1Cl | 41 to 43 °C
O=C(O)CCCCC(=O)NC1C=CCCCC1 (stereo unspecified) | 132 to 133 °C
CC(C)(C)OC(=O)NC1CCc2ccccc2C(=Cc2ccccc2)C1=O (stereo unspecified) | 156 to 158 °C

SMILES | melting point
COC(=O)C(Cl)=NNc1ccc(F)cc1 | 110 to 113 °C
CC(=O)Nc1ccc(Br)c2c1CN(C(C)=O)CC2 | 127 to 130 °C
Nc1ccccc1NC(=O)c1ccc(CNC(=O)c2[nH]c(-c3ccsc3)cc2-c2ccc(O)cc2)cc1 | 135 to 137 °C
CCCCCCCCCCCCCCCCCC(=O)Nc1cccc(N)c1 | 98 to 102 °C
CCCCNS(=O)(=O)c1cc(C(=O)Cl)ccc1Cl | 110 °C
COC(=O)c1cccc(C=C2COc3ccc(OCc4ccccc4)cc3C2=O)c1 | 109 to 112 °C
Cc1c(CNCC2CCOCC2)n(C)c2c(C)c(NC(=O)c3ccc(OC[C@@H]4CCCO4)cc3)ccc12 | 173 to 174 °C
COC(=O)c1ccc(-c2ncc(-c3ccc4c(c3)C(C)(C)CCC4(C)C)o2)cc1 | 153 to 155 °C
CCN(CC)C(=O)CCc1nc(-c2ccccc2Cl)nc2ccccc12 | 90 °C
CCOc1cc(OC)c(C(=O)C=Cc2ccc(OC)cc2)c(OP(=O)(O)O)c1 | 85 to 88 °C
CNC(=O)N(O)Cc1ccc(-c2ccccc2)s1 | 169 °C
CNc1nn(C(=O)NC(C)C(C)Cc2ccc(Cl)cc2)c(=O)n1C (stereo unspecified) | 222 to 224 °C
Cc1nc(Cc2ccc([N+](=O)[O-])cc2)sc1C | 93 to 94 °C
CCc1cc(Nc2ccccc2)cc(CC)c1N | 42 to 44 °C
Cc1[nH]cnc1/C=C1\CCCc2c(c3ccccc3n2C)C1=O | 230 to 232 °C
CC(=O)NC=Nc1ccc2nnc(-c3ncc([N+](=O)[O-])n3C)n2n1 | 237 to 241 °C
CCCCn1c(=O)c2nc(-c3ccc(/C=C/C(=O)O)cc3)[nH]c2n(C)c1=O | > 300 °C
c1ccc2c(c1)CCSO2 | 119 to 120 °C
CC(C)Oc1ccc(CCCCC2OC(=O)NC2=O)cc1 (stereo unspecified) | 81 to 82 °C
COc1ccc(-c2c(Cl)c(CN3CCCC3=O)nc3sc4cnccc4c23)cc1OC | 228 to 230 °C
NCC(O)CSc1ccccc1 (stereo unspecified) | 57 to 61 °C
COC(=O)NN=C(C)c1c[nH]c(-c2ccccc2)n1 | 226 to 227 °C
O=C(CC(=O)c1ccc(O)cc1O)c1ccc(OCc2ccccc2)c(OCc2ccccc2)c1 | 245 to 247 °C
CCC1c2nc[nH]c2CCN1C(=S)NC (stereo unspecified) | 230 °C
COc1ccc2c(c1)c(-c1cc3c(Cl)ccnc3[nH]1)cn2C | 250 to 252 °C
O=C1Oc2ccccc2C1(Cc1ccccc1)Cn1cncn1 (stereo unspecified) | 150 °C

SMILES | melting point
O=C1CCN=C(c2ccccc2F)c2cc(Cl)ccc21 | 107 to 109 °C
Cc1cc(C)c2cccc(OCc3c(Cl)ccc(S(=O)(=O)N4CCC[C@H]4C(=O)NCCCNC(=O)c4cccc(C#N)c4)c3Cl)c2n1 | 102 to 106 °C
Clc1ccc(-c2cc(Cl)n3nccc3n2)cc1 | 133 to 135 °C
CON=Cc1sc(-c2ccc(O)cc2)c(C)c1-c1ccc(O)cc1 | 219 to 225 °C
CSCC(C)(C)NC(=O)c1ccccc1Cl | 83 to 86 °C
O=C1NC(=O)c2c1c(O)nc1cc(Cl)ccc21 | > 350 °C
O=C(CN1C(=O)CNC1=O)OCc1ccccc1 | 142 to 144 °C
CCCc1nc(-n2c(C)ccc2C)c(/C=C/C(=O)O)n1Cc1ccc(-c2ccccc2-c2nnn[nH]2)cc1 | 144 to 150 °C
CCOC(=O)C(=CNc1ncnc2ccc(NC(=O)C(CC)CC)cc12)C(=O)OCC | 191 to 194 °C
CCOC(=O)C1(O)CC(C(F)(F)F)=NN1c1ncccc1Cl (stereo unspecified) | 78 to 78.5 °C
Cc1c(NC(=O)c2ccc(-c3ccc(Cl)cc3)cc2F)ccc2cc(CN3CCCC3)cnc12 | 181 to 183 °C
CS(=O)(=O)OCC1CSC2=C(O1)c1ccccc1C(=O)C2=O (stereo unspecified) | 230 to 232 °C
Cc1c(NC(=O)C(CSC(=O)c2cccs2)Cc2ccccc2)cccc1C(=O)O (stereo unspecified) | 164 to 167 °C
CC1=CC(O)C(O)C(C)(C)CC1O (stereo unspecified) | 138 to 139 °C
CS(=O)(=O)N1CCN(C(CC2Cc3cc(C(N)=O)ccc3O2)C(=O)NO)CC1 (stereo unspecified) | 185 °C
Cc1nc(-c2ccccc2Cl)sc1-c1ccccc1 | 63 to 65 °C
Cc1cccc(C(C)(C)O)c1N | 78 to 79 °C
Cc1ccc([N+](=O)[O-])cc1Nc1ccc(C(F)(F)F)cn1 | 103 to 105 °C
CC(=O)Nc1cccc2c1C1(COc3cc4c(cc31)OCCO4)C(=O)N2C (stereo unspecified) | 182 to 184 °C
O=C(O)CCc1ccc(CCNC(=S)Cc2ccccc2)cc1 | 210 to 212 °C
COc1cccc(CN2CCN(C(=S)SC)CC2)c1OC | 110 to 111 °C
COc1cc2c(cc1Nc1ncc(Cl)c(Nc3ccccc3S(=O)(=O)N(C)C)n1)CCN(CC(C)O)CC2 (stereo unspecified) | 183 to 185 °C
CC1CCN(c2ccc([N+](=O)[O-])cc2C(=O)c2ccccc2)CC1 | 81 °C
